{"source": "paper PMC7407272", "about": "“Induction of Lysosome Membrane Permeabilization as a Therapeutic Strategy to Target Pancreatic Cancer Stem Cells” (Cancers, 2020)", "assay_in_all_cases": "KINOMEscan", "format_in_all_cases": "binding", "conditions_in_all_cases": "read-out: % Ctrl", "key": {"STK36": {"molecular_target": "T1, STK36 (Homo sapiens, UniProt Q9NRP7)", "T1 construct": "purchased DiscoveRx KINOMEscan"}, "EPHA3": {"molecular_target": "T2, EPHA3 (Homo sapiens, UniProt P29320)", "T2 construct": "purchased DiscoveRx KINOMEscan"}, "EIF2AK1": {"molecular_target": "T3, EIF2AK1 (Homo sapiens, UniProt Q9BQI3)", "T3 construct": "purchased DiscoveRx KINOMEscan"}, "LATS2": {"molecular_target": "T4, LATS2 (Homo sapiens, UniProt Q9NRM7)", "T4 construct": "purchased DiscoveRx KINOMEscan"}, "EPHA5": {"molecular_target": "T5, EPHA5 (Homo sapiens, UniProt P54756)", "T5 construct": "purchased DiscoveRx KINOMEscan", "T5 sequence (P54756 25-1037)": "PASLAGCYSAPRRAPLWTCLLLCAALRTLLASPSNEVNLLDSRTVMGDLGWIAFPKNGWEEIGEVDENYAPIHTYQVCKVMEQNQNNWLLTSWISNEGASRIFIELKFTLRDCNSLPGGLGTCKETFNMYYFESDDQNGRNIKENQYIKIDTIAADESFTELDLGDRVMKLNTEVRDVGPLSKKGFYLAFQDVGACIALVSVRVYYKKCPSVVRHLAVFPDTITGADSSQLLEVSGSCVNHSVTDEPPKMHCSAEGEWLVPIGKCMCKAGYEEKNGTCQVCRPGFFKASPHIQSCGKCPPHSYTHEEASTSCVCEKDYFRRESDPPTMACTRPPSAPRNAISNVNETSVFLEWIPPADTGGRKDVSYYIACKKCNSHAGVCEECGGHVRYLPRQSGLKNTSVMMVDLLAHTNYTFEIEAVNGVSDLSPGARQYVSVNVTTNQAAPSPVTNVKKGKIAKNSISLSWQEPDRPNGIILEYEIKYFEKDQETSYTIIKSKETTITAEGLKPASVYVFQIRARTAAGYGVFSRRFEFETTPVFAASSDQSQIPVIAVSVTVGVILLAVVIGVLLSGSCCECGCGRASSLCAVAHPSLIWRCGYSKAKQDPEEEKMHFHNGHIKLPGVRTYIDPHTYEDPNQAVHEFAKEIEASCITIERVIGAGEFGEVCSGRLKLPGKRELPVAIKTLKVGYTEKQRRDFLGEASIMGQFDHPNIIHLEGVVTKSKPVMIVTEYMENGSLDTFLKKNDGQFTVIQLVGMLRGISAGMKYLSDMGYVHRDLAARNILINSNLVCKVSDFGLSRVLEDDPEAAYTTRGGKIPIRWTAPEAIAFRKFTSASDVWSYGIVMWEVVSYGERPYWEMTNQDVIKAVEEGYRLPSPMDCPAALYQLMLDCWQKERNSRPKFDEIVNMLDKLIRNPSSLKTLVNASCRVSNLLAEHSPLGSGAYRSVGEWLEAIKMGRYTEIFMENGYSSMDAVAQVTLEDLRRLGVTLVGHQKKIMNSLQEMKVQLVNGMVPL"}, "ABL1-nonP": {"molecular_target": "T6, ABL1-nonP (Homo sapiens, UniProt P00519)", "T6 construct": "purchased DiscoveRx KINOMEscan"}, "NEK5": {"molecular_target": "T7, NEK5 (Homo sapiens, UniProt Q6P3R8)", "T7 construct": "purchased DiscoveRx KINOMEscan"}, "p38-alpha": {"molecular_target": "T8, p38-alpha (Homo sapiens, UniProt Q16539)", "T8 construct": "purchased DiscoveRx KINOMEscan"}, "PRKG1": {"molecular_target": "T9, PRKG1 (Homo sapiens, UniProt Q13976)", "T9 construct": "purchased DiscoveRx KINOMEscan"}, "LIMK2": {"molecular_target": "T10, LIMK2 (Homo sapiens, UniProt P53671)", "T10 construct": "purchased DiscoveRx KINOMEscan"}, "IRAK4": {"molecular_target": "T11, IRAK4 (Homo sapiens, UniProt Q9NWZ3)", "T11 construct": "purchased DiscoveRx KINOMEscan"}, "BMPR2": {"molecular_target": "T12, BMPR2 (Homo sapiens, UniProt Q13873)", "T12 construct": "purchased DiscoveRx KINOMEscan"}, "CSNK1D": {"molecular_target": "T13, CSNK1D (Homo sapiens, UniProt P48730)", "T13 construct": "purchased DiscoveRx KINOMEscan"}, "TNK1": {"molecular_target": "T14, TNK1 (Homo sapiens, UniProt Q13470)", "T14 construct": "purchased DiscoveRx KINOMEscan"}, "PFPK5(P.falciparum)": {"molecular_target": "T15, PFPK5(P.falciparum) (Plasmodium falciparum, UniProt P61075)", "T15 construct": "purchased DiscoveRx KINOMEscan"}, "MARK4": {"molecular_target": "T16, MARK4 (Homo sapiens, UniProt Q96L34)", "T16 construct": "purchased DiscoveRx KINOMEscan"}, "PIK3CA(M1043I)": {"molecular_target": "T17, PIK3CA(M1043I) (Homo sapiens, UniProt P42336, M1043I)", "T17 construct": "purchased DiscoveRx KINOMEscan"}, "ABL1(H396P)-P": {"molecular_target": "T18, ABL1(H396P)-P (Homo sapiens, UniProt P00519, H396P)", "T18 construct": "purchased DiscoveRx KINOMEscan"}, "MAK": {"molecular_target": "T19, MAK (Homo sapiens, UniProt P20794)", "T19 construct": "purchased DiscoveRx KINOMEscan"}, "ERK3": {"molecular_target": "T20, ERK3 (Homo sapiens, UniProt Q16659)", "T20 construct": "purchased DiscoveRx KINOMEscan"}, "HIPK1": {"molecular_target": "T21, HIPK1 (Homo sapiens, UniProt Q86Z02)", "T21 construct": "purchased DiscoveRx KINOMEscan"}, "DMPK": {"molecular_target": "T22, DMPK (Homo sapiens, UniProt Q09013)", "T22 construct": "purchased DiscoveRx KINOMEscan"}, "KIT(V559D)": {"molecular_target": "T23, KIT(V559D) (Homo sapiens, UniProt P10721, V559D)", "T23 construct": "purchased DiscoveRx KINOMEscan", "T23 sequence (P10721 26-976 V559D)": "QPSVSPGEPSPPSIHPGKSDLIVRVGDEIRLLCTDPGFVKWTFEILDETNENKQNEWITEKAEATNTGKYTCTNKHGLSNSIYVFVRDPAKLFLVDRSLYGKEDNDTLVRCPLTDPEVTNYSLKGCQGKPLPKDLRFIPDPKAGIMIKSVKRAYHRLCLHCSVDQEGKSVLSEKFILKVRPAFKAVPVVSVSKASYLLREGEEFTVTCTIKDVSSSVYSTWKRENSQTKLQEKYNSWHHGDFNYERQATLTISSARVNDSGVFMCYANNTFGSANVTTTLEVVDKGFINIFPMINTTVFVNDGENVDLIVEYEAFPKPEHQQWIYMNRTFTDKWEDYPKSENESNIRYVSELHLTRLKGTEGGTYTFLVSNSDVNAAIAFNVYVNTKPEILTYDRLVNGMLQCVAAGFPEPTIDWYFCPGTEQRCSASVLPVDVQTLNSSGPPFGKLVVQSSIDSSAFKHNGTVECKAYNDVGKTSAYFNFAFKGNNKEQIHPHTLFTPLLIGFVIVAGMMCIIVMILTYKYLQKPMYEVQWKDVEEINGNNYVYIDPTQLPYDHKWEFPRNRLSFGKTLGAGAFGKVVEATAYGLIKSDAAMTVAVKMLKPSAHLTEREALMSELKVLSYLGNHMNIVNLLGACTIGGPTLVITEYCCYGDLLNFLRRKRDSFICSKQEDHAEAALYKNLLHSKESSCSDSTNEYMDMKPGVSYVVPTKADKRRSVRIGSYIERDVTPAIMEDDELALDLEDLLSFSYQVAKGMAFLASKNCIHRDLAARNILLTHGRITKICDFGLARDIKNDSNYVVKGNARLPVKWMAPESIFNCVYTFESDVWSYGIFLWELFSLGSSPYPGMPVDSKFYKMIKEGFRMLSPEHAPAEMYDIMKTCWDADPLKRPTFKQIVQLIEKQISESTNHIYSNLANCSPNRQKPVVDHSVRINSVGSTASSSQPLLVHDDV"}, "FAK": {"molecular_target": "T24, FAK (Homo sapiens, UniProt Q05397)", "T24 construct": "purchased DiscoveRx KINOMEscan"}, "PIK3CB": {"molecular_target": "T25, PIK3CB (Homo sapiens, UniProt P42338)", "T25 construct": "purchased DiscoveRx KINOMEscan"}, "TEC": {"molecular_target": "T26, TEC (Homo sapiens, UniProt P42680)", "T26 construct": "purchased DiscoveRx KINOMEscan"}, "ROCK1": {"molecular_target": "T27, ROCK1 (Homo sapiens, UniProt Q13464)", "T27 construct": "purchased DiscoveRx KINOMEscan"}, "ERK2": {"molecular_target": "T28, ERK2 (Homo sapiens, UniProt P28482)", "T28 construct": "purchased DiscoveRx KINOMEscan"}, "PIK3C2B": {"molecular_target": "T29, PIK3C2B (Homo sapiens, UniProt O00750)", "T29 construct": "purchased DiscoveRx KINOMEscan"}, "YSK4": {"molecular_target": "T30, YSK4 (Homo sapiens, UniProt Q56UN5)", "T30 construct": "purchased DiscoveRx KINOMEscan"}, "EGFR(G719C)": {"molecular_target": "T31, EGFR(G719C) (Homo sapiens, UniProt P00533, G719C)", "T31 construct": "purchased DiscoveRx KINOMEscan", "T31 sequence (P00533 25-1210 G719C)": "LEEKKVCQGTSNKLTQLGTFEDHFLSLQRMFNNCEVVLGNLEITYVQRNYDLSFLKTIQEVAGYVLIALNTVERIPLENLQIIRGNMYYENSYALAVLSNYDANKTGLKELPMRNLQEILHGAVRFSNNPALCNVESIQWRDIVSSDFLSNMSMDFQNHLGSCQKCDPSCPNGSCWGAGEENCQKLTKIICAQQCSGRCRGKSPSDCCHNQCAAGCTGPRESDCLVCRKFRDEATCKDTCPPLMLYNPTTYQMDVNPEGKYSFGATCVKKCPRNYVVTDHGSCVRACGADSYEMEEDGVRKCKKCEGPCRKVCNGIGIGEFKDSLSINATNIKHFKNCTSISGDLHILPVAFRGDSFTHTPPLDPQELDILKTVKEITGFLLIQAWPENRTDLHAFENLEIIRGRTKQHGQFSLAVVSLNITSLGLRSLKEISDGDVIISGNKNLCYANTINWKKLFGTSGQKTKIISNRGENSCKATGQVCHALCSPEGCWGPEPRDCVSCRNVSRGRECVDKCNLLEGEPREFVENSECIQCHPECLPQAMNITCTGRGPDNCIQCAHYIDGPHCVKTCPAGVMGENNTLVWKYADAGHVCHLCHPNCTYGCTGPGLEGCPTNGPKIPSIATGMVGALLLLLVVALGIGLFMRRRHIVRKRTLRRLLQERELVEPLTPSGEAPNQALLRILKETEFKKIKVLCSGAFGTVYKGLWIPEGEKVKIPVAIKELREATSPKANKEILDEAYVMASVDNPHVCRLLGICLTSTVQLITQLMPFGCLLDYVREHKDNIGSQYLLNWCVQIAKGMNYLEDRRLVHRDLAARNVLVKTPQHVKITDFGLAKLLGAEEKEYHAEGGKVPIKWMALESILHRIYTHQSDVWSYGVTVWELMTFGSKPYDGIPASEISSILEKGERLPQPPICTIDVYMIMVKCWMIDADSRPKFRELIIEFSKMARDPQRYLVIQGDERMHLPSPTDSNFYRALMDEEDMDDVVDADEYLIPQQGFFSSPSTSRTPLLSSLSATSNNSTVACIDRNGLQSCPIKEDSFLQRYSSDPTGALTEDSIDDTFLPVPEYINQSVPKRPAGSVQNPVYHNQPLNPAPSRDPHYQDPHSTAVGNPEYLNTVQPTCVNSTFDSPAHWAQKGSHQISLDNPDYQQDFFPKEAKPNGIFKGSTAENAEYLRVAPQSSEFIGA"}, "FLT3-autoi.": {"molecular_target": "T32, FLT3-autoi. (Homo sapiens, UniProt P36888)", "T32 construct": "purchased DiscoveRx KINOMEscan", "T32 sequence (P36888 27-993)": "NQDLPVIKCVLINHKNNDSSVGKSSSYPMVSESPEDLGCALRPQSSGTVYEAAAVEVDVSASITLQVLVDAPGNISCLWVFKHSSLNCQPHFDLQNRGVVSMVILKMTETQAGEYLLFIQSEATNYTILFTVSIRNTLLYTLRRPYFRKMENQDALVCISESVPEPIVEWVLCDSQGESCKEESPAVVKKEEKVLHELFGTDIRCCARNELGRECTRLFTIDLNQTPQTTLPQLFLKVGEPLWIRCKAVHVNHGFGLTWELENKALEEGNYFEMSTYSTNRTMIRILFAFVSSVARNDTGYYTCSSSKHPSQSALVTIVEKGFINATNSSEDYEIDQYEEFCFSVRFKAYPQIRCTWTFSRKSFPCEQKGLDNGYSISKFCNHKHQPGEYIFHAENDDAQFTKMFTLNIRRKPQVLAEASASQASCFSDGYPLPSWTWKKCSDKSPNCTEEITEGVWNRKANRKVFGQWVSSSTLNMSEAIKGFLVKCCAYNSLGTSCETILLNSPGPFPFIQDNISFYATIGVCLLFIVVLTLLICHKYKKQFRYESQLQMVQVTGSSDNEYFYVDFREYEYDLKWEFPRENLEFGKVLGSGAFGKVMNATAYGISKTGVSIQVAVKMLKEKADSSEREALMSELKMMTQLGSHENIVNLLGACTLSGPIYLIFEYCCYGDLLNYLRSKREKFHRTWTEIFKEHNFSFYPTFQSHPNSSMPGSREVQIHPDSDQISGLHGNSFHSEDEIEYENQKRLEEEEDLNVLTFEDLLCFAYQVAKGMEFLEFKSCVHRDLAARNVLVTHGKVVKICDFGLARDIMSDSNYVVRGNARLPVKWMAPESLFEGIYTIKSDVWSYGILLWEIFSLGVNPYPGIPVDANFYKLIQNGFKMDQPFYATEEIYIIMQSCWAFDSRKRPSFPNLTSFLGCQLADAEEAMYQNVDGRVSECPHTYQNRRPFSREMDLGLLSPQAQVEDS"}, "RIOK2": {"molecular_target": "T33, RIOK2 (Homo sapiens, UniProt Q9BVS4)", "T33 construct": "purchased DiscoveRx KINOMEscan", "T33 sequence (Q9BVS4 whole entry)": "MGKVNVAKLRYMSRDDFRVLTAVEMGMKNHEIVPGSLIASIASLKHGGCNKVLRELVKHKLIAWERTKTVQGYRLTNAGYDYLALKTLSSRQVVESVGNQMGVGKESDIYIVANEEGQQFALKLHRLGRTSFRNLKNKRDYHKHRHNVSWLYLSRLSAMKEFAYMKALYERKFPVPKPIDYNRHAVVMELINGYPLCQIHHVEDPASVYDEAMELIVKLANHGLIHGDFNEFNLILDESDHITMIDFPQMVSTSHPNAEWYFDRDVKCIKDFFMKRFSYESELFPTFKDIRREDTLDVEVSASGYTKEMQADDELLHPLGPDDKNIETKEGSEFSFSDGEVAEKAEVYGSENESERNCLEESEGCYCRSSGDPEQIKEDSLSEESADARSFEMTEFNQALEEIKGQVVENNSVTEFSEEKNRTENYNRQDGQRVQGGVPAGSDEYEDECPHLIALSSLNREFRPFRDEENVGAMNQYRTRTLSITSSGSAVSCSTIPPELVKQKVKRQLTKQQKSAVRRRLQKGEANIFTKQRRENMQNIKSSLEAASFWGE"}, "CSNK1G3": {"molecular_target": "T34, CSNK1G3 (Homo sapiens, UniProt Q9Y6M4)", "T34 construct": "purchased DiscoveRx KINOMEscan"}}}
{"smiles": "CN1CCC(CNc2ccc3ncc(C(=O)Nc4cccc(OC(F)(F)F)c4)n3n2)CC1", "note": "[Cpd 2]", "values": [{"measurement": "remaining binding at 1 µM", "setting": "STK36", "result": 100, "unit": "%"}, {"measurement": "remaining binding at 1 µM", "setting": "EPHA3", "result": 92, "unit": "%"}, {"measurement": "remaining binding at 1 µM", "setting": "EIF2AK1", "result": 95, "unit": "%"}, {"measurement": "remaining binding at 1 µM", "setting": "LATS2", "result": 99, "unit": "%"}, {"measurement": "remaining binding at 1 µM", "setting": "EPHA5", "result": 100, "unit": "%"}, {"measurement": "remaining binding at 1 µM", "setting": "ABL1-nonP", "result": 100, "unit": "%"}, {"measurement": "remaining binding at 1 µM", "setting": "NEK5", "result": 98, "unit": "%"}, {"measurement": "remaining binding at 1 µM", "setting": "p38-alpha", "result": 96, "unit": "%"}, {"measurement": "remaining binding at 1 µM", "setting": "PRKG1", "result": 100, "unit": "%"}, {"measurement": "remaining binding at 1 µM", "setting": "LIMK2", "result": 99, "unit": "%"}, {"measurement": "remaining binding at 1 µM", "setting": "IRAK4", "result": 100, "unit": "%"}, {"measurement": "remaining binding at 1 µM", "setting": "BMPR2", "result": 87, "unit": "%"}, {"measurement": "remaining binding at 1 µM", "setting": "CSNK1D", "result": 100, "unit": "%"}, {"measurement": "remaining binding at 1 µM", "setting": "TNK1", "result": 56, "unit": "%"}, {"measurement": "remaining binding at 1 µM", "setting": "PFPK5(P.falciparum)", "result": 97, "unit": "%"}, {"measurement": "remaining binding at 1 µM", "setting": "MARK4", "result": 100, "unit": "%"}, {"measurement": "remaining binding at 1 µM", "setting": "PIK3CA(M1043I)", "result": 90, "unit": "%"}, {"measurement": "remaining binding at 1 µM", "setting": "ABL1(H396P)-P", "result": 100, "unit": "%"}, {"measurement": "remaining binding at 1 µM", "setting": "MAK", "result": 94, "unit": "%"}, {"measurement": "remaining binding at 1 µM", "setting": "ERK3", "result": 100, "unit": "%"}, {"measurement": "remaining binding at 1 µM", "setting": "HIPK1", "result": 100, "unit": "%"}, {"measurement": "remaining binding at 1 µM", "setting": "DMPK", "result": 88, "unit": "%"}, {"measurement": "remaining binding at 1 µM", "setting": "KIT(V559D)", "result": 95, "unit": "%"}, {"measurement": "remaining binding at 1 µM", "setting": "FAK", "result": 100, "unit": "%"}, {"measurement": "remaining binding at 1 µM", "setting": "PIK3CB", "result": 91, "unit": "%"}, {"measurement": "remaining binding at 1 µM", "setting": "TEC", "result": 96, "unit": "%"}, {"measurement": "remaining binding at 1 µM", "setting": "ROCK1", "result": 50, "unit": "%"}, {"measurement": "remaining binding at 1 µM", "setting": "ERK2", "result": 100, "unit": "%"}, {"measurement": "remaining binding at 1 µM", "setting": "PIK3C2B", "result": 48, "unit": "%"}, {"measurement": "remaining binding at 1 µM", "setting": "YSK4", "result": 71, "unit": "%"}, {"measurement": "remaining binding at 1 µM", "setting": "EGFR(G719C)", "result": 82, "unit": "%"}, {"measurement": "remaining binding at 1 µM", "setting": "FLT3-autoi.", "result": 82, "unit": "%"}, {"measurement": "remaining binding at 1 µM", "setting": "RIOK2", "result": 99, "unit": "%"}, {"measurement": "remaining binding at 1 µM", "setting": "CSNK1G3", "result": 100, "unit": "%"}]}
